Data published in PMC5924617 (European journal of medicinal chemistry, 2018).

What was measured:
Groβ = test: poly; type: cell-based, human; conditions: for Inhibitory rate (%) of Groβ expression: 10 μM compound, poly(I:C)-induced, hSAECs; for inhibition at 10 µM: Homo sapiens, read-out: Inhibitory rate (%) of Groβ expression
ISG56 = test: poly; type: cell-based, human; conditions: for Inhibitory rate (%) of ISG56 expression: 10 μM compound, poly(I:C)-induced, hSAECs; for inhibition at 10 µM: Homo sapiens, read-out: Inhibitory rate (%) of ISG56 expression
[1] = test system: innate immune genes including ISG54, ISG56, IL-8 and Groβ; test: poly; type: cell-based, human; conditions: for IC50: Homo sapiens, read-out: IC50 against all innate immune genes (range); for Inhibitory rates on immune genes' expression (all genes, text): 10 μM compound, ISG54, ISG56, IL-8, Groβ in hSAECs
ISG54 = test: poly; type: cell-based, human
IL-8 = test: poly; type: cell-based, human; conditions: for inhibition at 10 µM: Homo sapiens, read-out: Inhibitory rate (%) of IL-8 expression
[2] = In vivo pharmacokinetic profile in rats; conditions: PO 20 mg/kg
[3] = Daily administration over one month in mice, toxicity; conditions: compound-treated mice
[4] = test system: various receptors and enzymes including kinases such as IKK; test: Eurofins Cerep panel assays, off-target effects; conditions: tested concentration 10 μM; Table S1
[5] = 10 μM compound, poly(I:C)-induced, hSAECs

With “5-Chloro-2-methoxy-N-(2-oxo-1,2,3,4-tetrahydroquinolin-6-yl)benzenesulfonamide [Compound 26]” the “Inhibitory rate (%) of Groβ expression” value (Groβ) was 56% and the “Inhibitory rate (%) of ISG56 expression” value (ISG56) was 56%.
With Cc1sc2c(c1C)C(c1ccc(Cl)cc1)=N[C@@H](CC(=O)OC(C)(C)C)c1nnc(C)n1-2 [(+)-JQ1, reference compound] the IC50 [1] was 1380 to 3850 nM.
Compound CCCc1cc(C(=O)Nc2ccc(S(=O)(=O)N3CCC[C@H]3C(=O)OC)cc2)no1 [Compound 11, Methyl ((4-(5-propylisoxazole-3-carboxamido)phenyl)sulfonyl)-L-prolinate] has an inhibition at 10 µM (Groβ) of -57%, an inhibition at 10 µM (ISG56) of -73% and an inhibition at 10 µM (ISG54; Homo sapiens, read-out: Inhibitory rate (%) of ISG54 expression) of -62%. The inhibition at 10 µM (IL-8) was -61%.
In the case of COC(=O)[C@@H]1CCCN1S(=O)(=O)c1ccc(N(C(=O)c2ccc(F)cc2)C(=O)c2ccc(F)cc2)cc1 [Compound 13, Methyl ((4-(4-fluoro-N-(4-fluorobenzoyl)benzamido)phenyl)sulfonyl)-L-prolinate], the “Inhibitory rates on immune genes' expression (all genes, text)” value (shortened to “Inhibitory rates”) [1] is reported as “around 90%”.
With COC(=O)[C@@H]1CCCN1S(=O)(=O)c1ccc(NC(=O)c2ccc(C(F)(F)F)cc2)cc1 [Compound 14, Methyl ((4-(4-(trifluoromethyl)benzamido)phenyl)sulfonyl)-L-prolinate] the “Inhibitory rates” value [1] was “completely lost its activity”.
COC(=O)[C@@H]1CCCN1S(=O)(=O)c1ccc(NCc2ccc(O)cc2)cc1 [Compound 15, Methyl ((4-((4-hydroxybenzyl)amino)phenyl)sulfonyl)-L-prolinate] showed an inhibition at 10 µM (Groβ) of -12% and an inhibition at 10 µM (ISG56) of -17%.
Compound O=C1CCc2cc(NS(=O)(=O)c3ccc([N+](=O)[O-])cc3)ccc2N1 [Compound 27, 4-Nitro-N-(2-oxo-1,2,3,4-tetrahydroquinolin-6-yl)benzenesulfonamide] has an inhibition at 10 µM (IL-8) of -32%.
In the case of Cc1cc(/N=N/c2ccc3c(c2)CCC(=O)N3)c(N)cc1O [Compound 28, (E)-6-((2-Amino-4-hydroxy-5-methylphenyl)diazenyl)-3,4-dihydroquinolin-2(1H)-one], the Oral bioavailability [2] is reported as “not favorable” and the IC50 [1] is reported as 490 to 860 nM.
With Cc1cc(/N=N/c2ccc(N3CCS(=O)(=O)CC3)cc2)c(N)cc1O [Compound 33, (E)-4-(4-((2-Amino-4-hydroxy-5-methylphenyl)diazenyl)phenyl)thiomorpholine 1,1-dioxide] the “Inhibitory rates” value [1] was “inactive”.
With Cc1cc(/N=N/c2ccc(S(=O)(=O)NC3CCCC3)cc2)c(N)cc1O [Compound 35, (E)-4-((2-Amino-4-hydroxy-5-methylphenyl)diazenyl)-N-cyclopentylbenzenesulfonamide] the Oral bioavailability [2] was “not favorable”, the “Effects on hepatic, renal or pulmonary tissues, histological examination” value [3] was “No discernable effects” and the IC50 [1] was 490 to 860 nM. The Off-target effects [4] was “No significant off-target effects”.
For “Methyl ((4-(5-(furan-3-yl)isoxazole-3-carboxamido)phenyl)sulfonyl)-L-prolinate [Compound 12]”, the “Inhibitory rate (%) of Groβ expression” value (Groβ) was −98%, the “Inhibitory rate (%) of ISG56 expression” value (ISG56) was −93% and the “Inhibitory rate (%) of ISG54 expression” value (ISG54; [5]) was −114%. For the same compound, the “Inhibitory rate (%) of IL-8 expression” value (IL-8; [5]) was −86%.
